Several values for one entry are separate records, joined by “and”; a condition that tells them apart may be missing. Equal entries are not always repeated. Structures can show the parent of a compound that is named as a salt.

The target in the first experiment is Intestinal-type alkaline phosphatase (Homo sapiens, UniProt P09923). Briefly: inhibition of intestinal alkaline phosphatase – biochemical, luminescence, dose response (AID 1017).
Sequence of Intestinal-type alkaline phosphatase (P09923 whole entry, looked up): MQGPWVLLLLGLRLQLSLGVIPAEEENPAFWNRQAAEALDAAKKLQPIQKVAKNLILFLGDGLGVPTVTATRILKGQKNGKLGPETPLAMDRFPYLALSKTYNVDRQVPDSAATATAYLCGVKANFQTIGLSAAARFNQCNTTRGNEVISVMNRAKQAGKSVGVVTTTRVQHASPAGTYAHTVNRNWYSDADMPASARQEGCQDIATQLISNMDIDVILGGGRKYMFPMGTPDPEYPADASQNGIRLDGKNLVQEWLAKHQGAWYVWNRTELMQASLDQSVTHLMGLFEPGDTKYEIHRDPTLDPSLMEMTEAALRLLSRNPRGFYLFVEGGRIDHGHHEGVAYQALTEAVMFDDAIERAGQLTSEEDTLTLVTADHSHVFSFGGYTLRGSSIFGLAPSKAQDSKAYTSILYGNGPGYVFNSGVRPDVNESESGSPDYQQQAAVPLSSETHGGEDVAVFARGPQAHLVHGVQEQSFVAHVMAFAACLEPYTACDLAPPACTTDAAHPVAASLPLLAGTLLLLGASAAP
Details: not given
In general, IC50 refers to the point on the concentration scale where inhibition reaches its midpoint. The low end stands for higher potency, the high end for lower potency. For `COC(=O)c1cc(-c2ccccc2)n[nH]1` [methyl 3-phenyl-1H-pyrazole-5-carboxylate], the IC50 is above 100 µM.
Still for that read-out and setting: for `COc1ccc(OC)c(S(=O)(=O)Nc2cccnc2)c1` [2,5-Dimethoxy-N-(pyridin-3-yl)benzenesulfonamide] the value was above 100 µM; for `Cc1cc(=O)oc2n[nH]c(-c3ccccc3)c12` [MLS-0013971.0001], above 100 µM.
Same read-out and setting: for `CCOc1ccc(Cl)cc1S(=O)(=O)Nc1cccnc1` [5-chloro-2-ethoxy-N-(pyridin-3-yl)benzenesulfonamide] the value was above 100 µM.
Still for that read-out and setting: for `COc1ccc(-c2[nH]nc3oc(=O)cc(C)c23)cc1` the value was above 100 µM.
On to `Oc1cc(-c2cccc3ccccc23)[nH]n1` [MLS-0067141.0001], for which the IC50 is above 100 µM.
Same read-out and setting: for `O=C1c2ccccc2C(=O)N1c1nnc[nH]1` [2-(1H-1,2,4-triazol-5-yl)isoindole-1,3-dione] the value was above 100 µM; for `C=CCn1c(SCC(=O)c2ccc(O)c(O)c2)nnc1-c1ccccc1OC` [1-(3,4-dihydroxyphenyl)-2-[[5-(2-methoxyphenyl)-4-prop-2-enyl-1,2,4-triazol-3-yl]sulfanyl]ethanone], > 6.25 µM and 20.7 µM; for `COC(=O)c1cc(-c2ccc(Br)cc2)n[nH]1`, above 100 µM.
Same read-out and setting: for `COc1ccc(C)cc1S(=O)(=O)Nc1cnc2ccccc2c1` [2-Methoxy-5-methyl-N-(quinolin-3-yl)benzenesulfonamide] the value was above 100 µM.
On the same count and under the same terms, for `O=C(CSc1nnc(-c2ccccc2)[nH]1)c1ccc(O)cc1O` [1-[2,4-bis(oxidanyl)phenyl]-2-[(5-phenyl-1H-1,2,4-triazol-3-yl)sulfanyl]ethanone] the value was above 100 µM; for `O=C(CNc1ccncc1)c1ccc(O)c(O)c1` [1-(3,4-dihydroxyphenyl)-2-(4-pyridylamino)ethanone], above 100 µM; for `Cc1nc2ccccc2n1CC(=O)c1ccc(O)c(O)c1` [1-(3,4-dihydroxyphenyl)-2-(2-methyl-1-benzimidazolyl)ethanone;hydrochloride], above 100 µM.
`Cc1cc(C)nc(SCC(=O)c2ccc(O)c(O)c2)n1` [1-(3,4-dihydroxyphenyl)-2-(4,6-dimethylpyrimidin-2-ylthio)ethanone]: half-maximal inhibition (IC50) was put at 49.5 µM.
Still for that read-out and setting: for `O=C(c1[nH]nc2c1COc1ccccc1-2)N1CCCC1` [(2,4-dihydrochromeno[4,3-c]pyrazol-3-yl)(pyrrolidin-1-yl)methanone] the value was above 100 µM; for `O=C1Nc2ccccc2C1C=NCCc1ccc(O)c(O)c1` (configuration not stated) [(3E)-3-[[2-(3,4-dihydroxyphenyl)ethylamino]methylene]oxindole], 9.95 µM.
Still for that read-out and setting: for `O=C(O)c1cc(-c2ccccc2Cl)n[nH]1` [3-(2-chlorophenyl)-1H-pyrazole-5-carboxylic acid] the value was 43.4 µM.
Still for that read-out and setting: for `Cc1cnn(CC(=O)c2ccc(O)c(O)c2)c1` [1-(3,4-dihydroxyphenyl)-2-(4-methyl-1H-pyrazol-1-yl)ethanone] the value was 53.3 µM; for `COC(=O)c1cc(-c2ccc(Cl)cc2Cl)n[nH]1`, above 100 µM; for `C=CCn1c(SCC(=O)c2ccc(O)c(O)c2)nnc1-c1cccnc1` [1-(3,4-dihydroxyphenyl)-2-[(4-prop-2-enyl-5-pyridin-3-yl-1,2,4-triazol-3-yl)sulfanyl]ethanone], 40.4 µM.
Compound `CCn1c(CSc2nc3ccccc3s2)nnc1SCC(=O)c1ccc(O)c(O)c1` [2-[[5-(1,3-benzothiazol-2-ylsulfanylmethyl)-4-ethyl-1,2,4-triazol-3-yl]sulfanyl]-1-(3,4-dihydroxyphenyl)ethanone] yielded an IC50 above 100 µM.
Same read-out and setting: for `CCOC(=O)c1cc(-c2ccc(Cl)cc2)n[nH]1` [MLS-0111582.0001] the value was above 100 µM; for `CCc1nccn1CC(=O)c1ccc(O)c(O)c1` [1-(3,4-dihydroxyphenyl)-2-(2-ethyl-1-imidazolyl)ethanone;hydrochloride], above 100 µM; for `Cc1cc(C)nc(SCC(=O)c2ccc(O)cc2)n1` [2-(4,6-dimethylpyrimidin-2-ylthio)-1-(4-hydroxyphenyl)ethanone], above 100 µM.
Still for that read-out and setting: for `O=C(O)c1ccc2c(c1)C(=O)N(c1nc(-c3cccnc3)n[nH]1)C2=O` [1,3-dioxo-2-(5-pyridin-3-yl-1H-1,2,4-triazol-3-yl)isoindole-5-carboxylic acid] the value was 40.7 µM.
`Cn1c(SCC(=O)c2ccc(O)c(O)c2)nnc1-c1ccccc1` [1-(3,4-dihydroxyphenyl)-2-(4-methyl-5-phenyl-4H-1,2,4-triazol-3-ylthio)ethanone] returned an IC50 above 100 µM.
On the same count and under the same terms, for `COc1ccc(C(=O)CSc2nc(C)cc(C)n2)cc1` [2-(4,6-dimethylpyrimidin-2-ylthio)-1-(4-methoxyphenyl)ethanone] the value was above 100 µM.
Still for that read-out and setting: for `O=C1c2c(Cl)c(Cl)c(Cl)c(Cl)c2C(=O)N1c1nnc(CCc2ccccc2)[nH]1` the value was above 100 µM.
On to `COc1cc(C)c(Cl)cc1S(=O)(=O)Nc1cccnc1` [5-chloro-2-methoxy-4-methyl-N-(pyridin-3-yl)benzenesulfonamide], for which the IC50 was above 100 µM.
On the same count and under the same terms, for `O=C(Cn1cnc2ccccc21)c1ccc(O)c(O)c1` [2-(1-benzimidazolyl)-1-(3,4-dihydroxyphenyl)ethanone;hydrochloride] the value was 14.8 µM.
Still for that read-out and setting: for `COc1ccc(OC)c(S(=O)(=O)Nc2cnc3ccccc3c2)c1` the value was above 100 µM; for `Cn1nc(-c2ccc(F)cc2)cc1C(=O)O` [5-(4-fluorophenyl)-2-methyl-3-pyrazolecarboxylic acid], above 100 µM; for `COC(=O)c1cc(-c2ccc(C)cc2C)n[nH]1`, above 100 µM.
Regarding `O=C1c2c(Cl)c(Cl)c(Cl)c(Cl)c2C(=O)N1c1nnc[nH]1` [4,5,6,7-tetrachloro-2-(1H-1,2,4-triazol-5-yl)isoindole-1,3-dione], the IC50 is above 10 µM.
The compound `COc1ccc(C)cc1S(=O)(=O)Nc1cccnc1` [2-Methoxy-5-methyl-N-(pyridin-3-yl)benzenesulfonamide] registered an IC50 above 100 µM.
The same measure, in the same setting: for `O=C1c2ccccc2C(=O)C1c1nc2ccccc2[nH]1` the value was above 100 µM; for `COC(=O)c1cc(-c2ccc(OC)cc2)[nH]n1` [MLS-0091975.0001], above 100 µM; for `Cn1nc(C(=O)O)cc1-c1ccc(F)cc1` [5-(4-fluorophenyl)-1-methyl-3-pyrazolecarboxylic acid], above 100 µM.
Same read-out and setting: for `C=CCn1c(SCC(=O)c2ccc(O)c(O)c2)nnc1-c1cccc(OC)c1` [1-(3,4-dihydroxyphenyl)-2-[[5-(3-methoxyphenyl)-4-prop-2-enyl-1,2,4-triazol-3-yl]sulfanyl]ethanone] the value was 13.1 µM; for `O=C(CSc1nnc(-c2ccccc2Cl)[nH]1)c1ccc(O)c(O)c1` [1-[3,4-bis(oxidanyl)phenyl]-2-[[5-(2-chlorophenyl)-1H-1,2,4-triazol-3-yl]sulfanyl]ethanone], above 100 µM; for `COc1ccc(C)cc1S(=O)(=O)Nc1ccc2ccccc2c1` [2-methoxy-5-methyl-N-(2-naphthalenyl)benzenesulfonamide], above 100 µM.
Same read-out and setting: for `O=C(CSc1nnc(-c2ccccc2)[nH]1)c1ccc(O)c(O)c1` the value was 5.32 µM.
Compound `C=CCn1c(SCC(=O)c2ccc(O)c(O)c2)nnc1-c1ccccc1` [1-(3,4-dihydroxyphenyl)-2-[(5-phenyl-4-prop-2-enyl-1,2,4-triazol-3-yl)sulfanyl]ethanone] displayed an IC50 of 10.1 µM.
On the same count and under the same terms, for `COc1ccc2c(c1OC)C(=O)N(c1nnc(SC)[nH]1)C2=O` [MLS-0146265.0001] the value was above 100 µM; for `Cc1ccc(-n2nnnc2SCC(=O)c2ccc(O)c(O)c2)cc1` [1-(3,4-dihydroxyphenyl)-2-[1-(4-methylphenyl)tetrazol-5-yl]sulfanylethanone], 3.36 µM.
Same read-out and setting: for `O=C1c2ccccc2C(=O)N1c1nncs1` [2-(1,3,4-thiadiazol-2-yl)isoindole-1,3-dione] the value was above 100 µM; for `CCOC(=O)c1cc(-c2ccc3c(c2)OCCO3)n[nH]1`, above 100 µM.
Same read-out and setting: for `CCc1nnc(SCC(=O)c2ccc(O)c(O)c2)[nH]1` [MLS-0315685.0001] the value was 1.27 µM.
Compound `COC(=O)c1cc(-c2ccc3ccccc3c2)[nH]n1` [MLS-0111546.0001] had an IC50 above 100 µM.
Same read-out and setting: for `COc1ccc(-n2nnnc2SCC(=O)c2ccc(O)c(O)c2)cc1` [1-(3,4-dihydroxyphenyl)-2-(1-(4-methoxyphenyl)-1H-tetrazol-5-ylthio)ethanone] the value was 4.35 µM; for `CCCCOc1ccc(-c2cc(C(=O)OC)[nH]n2)cc1` [methyl 3-(4-butoxyphenyl)-1H-pyrazole-5-carboxylate], above 100 µM.
Turning to `COc1ccccc1-c1nc(SCC(=O)c2ccc(O)c(O)c2)n[nH]1` [1-(3,4-dihydroxyphenyl)-2-[[5-(2-methoxyphenyl)-1H-1,2,4-triazol-3-yl]sulfanyl]ethanone], the 50% inhibitory concentration (IC50) is above 3.13 µM.
Turning to `Oc1c2c(c(O)n1-c1nnc(Cc3ccccc3)[nH]1)CC=CC2` [MLS000100008], the IC50 is 0.539 µM and 0.922 µM.
On the same count and under the same terms, for `O=C1c2c(Cl)c(Cl)c(Cl)c(Cl)c2C(=O)N1c1nc(Cc2ccccc2)n[nH]1` [MLS-0146263.0001] the value was above 100 µM; for `O=C(Cn1ccnc1)c1ccc(O)c(O)c1` [1-(3,4-dihydroxyphenyl)-2-(1-imidazolyl)ethanone;hydrochloride], 30.2 µM and 18.5 µM; for `Oc1c2c(c(O)n1-c1nnc(-c3ccccc3)[nH]1)CC=CC2` [2-(5-Phenyl-2H-[1,2,4]triazol-3-yl)-3a,4,7,7a-tetrahydro-isoindole-1,3-dione], 0.11 µM and 0.157 µM.

The same experiment, now with this note: inactive by the depositor's call.
As to `CCn1c(SCC(=O)c2ccc(O)c(O)c2)nnc1-c1ccccc1` [1-(3,4-Dihydroxy-phenyl)-2-(4-ethyl-5-phenyl-4H-[1,2,4]triazol-3-ylsulfanyl)-ethanone], inhibition was half-maximal at 32.8 µM (IC50).

Values taken from BindingDB's records for doi:10.7270/Q2JQ0ZDS (Sanford-Burnham Center for Chemical Genomics, 2009).
